Series [1] deals with H3122 cells (EML4-ALK). The experiment in a line: Cell growth inhibition assay (WST-8), H3122. In kind it is cell-based. The conditions noted are these: Homo sapiens, NCI-H3122, read-out: H3122 (nM) (EML4-ALK), 50% of cell growth inhibition (IC50), WST-8, versus DMSO control. The procedure: (§1) H3122 and Kappas-299 cells were purchased from American Type Culture Collection (Manassas, Va., USA) and were used within 2 months after initiating from original stocks. All cell lines were cultured as recommended. For cell growth inhibition assay, cells were treated with different concentrations of the tested compounds, diluted from stock to culture media containing a 0.2% DMSO as the final concentration. Cell viability was determined using the WST-8 cell proliferation assay kit (Dojindo Molecular Technologies) according to manufacturer's instructions. Three independent experiments in triplicates were performed.

For series [2], the target named is T1, wild-type human ALK protein (cytoplasmic domain, amino acid 1058-1620) (Homo sapiens, UniProt Q9UM73).
T1 construct: The cytoplasmic domain (amino acid 1058-1620) of wild-type human ALK protein; purchased Carna Biosciences, Inc (Japan)
Briefly: Wild-type ALK kinase inhibition, Lance TR-FRET assay. Particulars: Table 4; target not given; Cpd. No. 5 value equals WT ALK IC50 of Table 5; read-out: Inhibitory activity. In kind it is biochemical. The procedure:
The cytoplasmic domain (amino acid 1058-1620) of wild-type human ALK protein expressed as N-terminal GST-fusion protein was purchased from Carna Biosciences, Inc (Japan). Mutated ALK proteins were expressed in SF9 insect cells with N-terminal tags cleaved after purification. Kinase activities of all enzymes were assessed using a Lance® TR-FRET assay kit from Perkin Elmer Life Sciences (Waltham, Mass.). 2.5 μL of compound solution and 5 μL of protein solution were added into a black low volume 384 well microtiter plate which was incubated for 30 minutes with gentle shaking at room temperature, followed by adding 2.5 μL of fluorescently labeled peptide substrate (ULight™-IRS-1 (Tyr983) Peptide) and ATP mixture solution. The kinase reaction was performed in 50 mM HEPES (pH 7.5) with 1 mM EGTA, 1 mM MgCl2, and 2 mM DTT, 0.01% Tween-20 added right before the assay. Final concentrations of ATP, substrates, and DMSO were 100 μM, 20 nM, and 0.5%, respectively. […] Final ALK concentrations were 1 nM, 1 nM, InM, 128 nM, 2 nM, and 4 nM for wild-type, F1174L, L1196M, S1206Y, G1269A, and G1202R, respectively. The reaction was allowed to perform for 90 minutes in dark with gentle shaking at room temperature after which 10 μL of 20 mM EDTA and 2 nM Eu-W1024 anti-phosphotyrosine antibody (PT66) mixture solution in the detection buffer from the manufacturer was added to terminate the reaction and detect the phosphorylation of the peptide substrate. The final mixture was incubated in the dark for 1 hour before the plate was read on a Tecan Infinite M-1000 multi-mode plate reader (Tecan, Durham N.C.) with an excitation wavelength of 320 nm. Emission intensities were measured at both 620 and 665 nm with the intensity ratio between 665 and 620 nm corresponding to the peptide substrate phosphorylation. IC50 values of inhibitors were obtained by fitting the ratio of 665/620 nm vs inhibitor concentrations in a sigmoidal dose-response curve (variable slope) with a non-linear regression.
A general note: TR-FRET usually uses a lanthanide donor and a delayed reading to cut background.

For series [3], the system named is Kappas-299 cells (NPM-ALK). Briefly: Cell growth inhibition assay (WST-8), Kappas-299. In kind it is cell-based. Particulars: read-out: Kappas-299 (nM) (NPM-ALK), 50% of cell growth inhibition (IC50), WST-8, versus DMSO control. The procedure: as §1
Background: Tetrazolium assays rely on reduction of a dye to a coloured formazan, in cell work by metabolically active cells.

Series [4] deals with Human lymphoma cells, KARPAS 299 xenograft. The experiment in a line: KARPAS 299 xenograft tumor growth in SCID mice. In kind it is in vivo. Particulars: given orally, once daily for 3 weeks, FIG. 1. The procedure:
Cpd. Nos. 5 and 6 were dissolved in a solution of 98% PEG200: 2% TPGS (Sigma).
Human lymphoma cells, KARPAS 299 were maintained at 37° C., 95% air, 5% carbon dioxide in RPMI 1640 medium supplemented with 10% Fetal Bovine Serum, 100 units/ml of penicillin and 100 units/ml of streptomycin (GIBCO™, Invitrogen Corp.) and passaged twice weekly.
Tumor cells for xenografts were washed twice in PBS, and re-suspended in an ice cold mixture of 1:1 PBS and Matrigel (BD Biosciences, Invitrogen Corp.) for a final Matrigel protein concentration of 5 mg/ml. Cells at 5×10^6 cells in 0.1 ml were injected subcutaneously (s.c.) into the flank region of each mouse. All tumors were inoculated into SCID mice (strain:236 C.B-17 SCID, Charles River).
The size of tumors growing in the mice was measured in two dimensions using calipers. Tumor volume (mm^3)=(AxB^2)/2 where A and B are the tumor length and width (in mm), respectively. During treatment, tumor volume and body weight were measured three times a week. After the treatment was stopped, tumor volume and body weight was measured at least once a week.
Tumors were not allowed to exceed 10% of the animal's total body weight. If an animal had two or more tumors the total weight of all tumors were not allowed to exceed 10% of the animal's total body weight. […]

A short description of series [5]: Pharmacokinetics in SD rats. It is filed as in vivo. Particulars: 10 mg/kg, Table 8 (SD rats), PO 10 mg/kg. The procedure: Routine pharmacokinetics studies were performed for Cpd. No. 5 in SD rats and beagle dogs.

pIC50: −log10 of the molar value.

T1 sequence (Q9UM73 1058-1620): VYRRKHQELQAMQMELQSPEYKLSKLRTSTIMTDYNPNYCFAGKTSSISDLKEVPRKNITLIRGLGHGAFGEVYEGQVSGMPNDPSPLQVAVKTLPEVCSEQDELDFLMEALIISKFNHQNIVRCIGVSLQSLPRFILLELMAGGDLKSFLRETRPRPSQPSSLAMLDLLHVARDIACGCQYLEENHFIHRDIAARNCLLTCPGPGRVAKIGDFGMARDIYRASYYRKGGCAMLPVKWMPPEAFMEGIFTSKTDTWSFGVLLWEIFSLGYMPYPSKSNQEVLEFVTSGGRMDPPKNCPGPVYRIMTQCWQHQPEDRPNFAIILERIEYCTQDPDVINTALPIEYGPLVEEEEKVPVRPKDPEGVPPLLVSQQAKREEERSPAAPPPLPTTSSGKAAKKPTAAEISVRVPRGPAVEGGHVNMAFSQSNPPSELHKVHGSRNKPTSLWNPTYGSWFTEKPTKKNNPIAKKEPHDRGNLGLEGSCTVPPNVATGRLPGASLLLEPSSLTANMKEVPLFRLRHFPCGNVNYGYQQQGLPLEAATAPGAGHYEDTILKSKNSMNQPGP

Broadly, the IC50 is the point on the concentration scale where inhibition reaches its midpoint. Regarding `Cc1cc(Nc2ncc(Cl)c(Nc3ccccc3S(=O)(=O)C(C)C)n2)c(OC(C)C)cc1C1=CC(C)(C)NC(C)(C)C1` [compound 2, 5-chloro-N2-(2-isopropoxy-5-methyl-4-(2,2,6,6-tetramethyl-1,2,3,6-tetrahydropyridin-4-yl)phenyl)-N4-(2-(isopropylsulfonyl)phenyl)pyrimidine-2,4-diamine], the IC50 was 132 nM in series [1] and 39 nM in series [3]. For the same molecule, in series [2], the pIC50 is 8.36.

As for `Cc1cc(Nc2ncc(Cl)c(Nc3ccccc3S(=O)(=O)C(C)C)n2)c(OC(C)C)cc1C1=CCN(C2COC2)CC1` [compound 6, 5-chloro-N2-(2-isopropoxy-5-methyl-4-(1-(oxetan-3-yl)-1,2,3,6-tetrahydropyridin-4-yl)phenyl)-N4-(2-(isopropylsulfonyl)phenyl)pyrimidine-2,4-diamine], the “tumor growth in the KARPAS 299 xenograph model” value in series [4] is on record as “inhibit tumor growth”.

Regarding `Cc1cc(Nc2ncc(Cl)c(Nc3ccccc3S(=O)(=O)C(C)C)n2)c(OC(C)C)cc1C1=CC(C)(C)N(C)C(C)(C)C1` [compound 1, 5-chloro-N2-(2-isopropoxy-5-methyl-4-(1,2,2,6,6-pentamethyl-1,2,3,6-tetrahydropyridin-4-yl)phenyl)-N4-(2-(isopropylsulfonyl)phenyl)pyrimidine-2,4-diamine], the IC50 in series [1] was 92 nM; in series [3], 30 nM. In series [2], the pIC50 is 8.74.

With `Cc1cc(Nc2ncc(Cl)c(Nc3ccccc3S(=O)(=O)C(C)C)n2)c(OC(C)C)cc1C1=C[C@H](C)N[C@H](C)C1` (racemic) [compound 9, 5-chloro-N2-(4-((cis)-2,6-dimethyl-1,2,3,6-tetrahydropyridin-4-yl)-2-isopropoxy-5-methylphenyl)-N4-(2-(isopropylsulfonyl)phenyl)pyrimidine-2,4-diamine], the IC50 is 54.9 nM in series [1] and 35.9 nM in series [3]. Also, the pIC50 in series [2] was 8.96.

Regarding `Cc1cc(Nc2ncc(Cl)c(Nc3ccccc3S(=O)(=O)C(C)C)n2)c(OC(C)C)cc1C1=C[C@H](C2CC2)N[C@H](C2CC2)C1` (racemic) [compound 15, 5-chloro-N2-(4-((cis)-2,6-dicyclopropyl-1,2,3,6-tetrahydropyridin-4-yl)-2-isopropoxy-5-methylphenyl)-N4-(2-(isopropylsulfonyl)phenyl)pyrimidine-2,4-diamine], the IC50 in series [1] came out at 196 nM; in series [3], 121 nM. Further, the pIC50 in series [2] is 8.18.

Consider `Cc1cc(Nc2ncc(Cl)c(Nc3ccccc3S(=O)(=O)C(C)C)n2)c(OC(C)C)cc1C1=C[C@H](C)N(C)[C@H](C)C1` (racemic) [compound 10, 5-chloro-N2-(2-isopropoxy-5-methyl-4-((cis)-1,2,6-trimethyl-1,2,3,6-tetrahydropyridin-4-yl)phenyl)-N4-(2-(isopropylsulfonyl)phenyl)pyrimidine-2,4-diamine], for which the half-maximal inhibitory concentration (IC50) in series [1] was found to be 54.9 nM; in series [3] it was 37.5 nM. For the same molecule, the pIC50 in series [2] is 9.01.

`Cc1cc(Nc2ncc(Cl)c(Nc3ccccc3S(=O)(=O)C(C)C)n2)c(OC(C)C)cc1C1=CCN(C2CCOCC2)CC1` [Cpd. No. 5 (mesylate), 5-chloro-N2-(2-isopropoxy-5-methyl-4-(1-(tetrahydro-2H-pyran-4-yl)-1,2,3,6-tetrahydropyridin-4-yl)phenyl)-N4-(2-(isopropylsulfonyl)phenyl)pyrimidine-2,4-diamine]: the half-life in series [5] (Sprague-Dawley, rat, in vivo, po, read-out: t1/2 (h) PO (converted)) is 3.84 h. For the same molecule, in series [5], the “AUC0-t (ng · h/mL) PO” value is 958 ng·h/mL, the “AUC0-∞ (ng · h/mL) PO” value was found to be 971 ng·h/mL, the “Cmax(ng/mL) PO” value is on record as 127 ng/mL and the “Tmax (h) PO” value is listed as 1.0 h.

For the molecule `Cc1cc(Nc2ncc(Cl)c(Nc3ccccc3S(=O)(=O)C(C)C)n2)c(OC(C)C)cc1C1=C[C@H](C2CC2)N(C)[C@H](C2CC2)C1` (racemic) [compound 16, 5-chloro-N2-(4-((cis)-2,6-dicyclopropyl-1-methyl-1,2,3,6-tetrahydropyridin-4-yl)-2-isopropoxy-5-methylphenyl)-N4-(2-(isopropylsulfonyl)phenyl)pyrimidine-2,4-diamine], the IC50 in series [1] came to 160 nM; in series [3], 97.7 nM. Also, the pIC50 in series [2] was 8.20.

(Values after patent US10709705B2, “Aminopyrimidines as ALK inhibitors” (THE REGENTS OF THE UNIVERSITY OF MICHIGAN, priority 2016, dated 2020).)
